Experimental data reported in patent US7396837B2, “Antitumoral analogs of lamellarins” (Pharma Mar, S.A.U., priority 2002, dated 2008).
Where two headings read alike, the source gives them in different places.

How the values were obtained:
Type in all cases: cell-based
HeLa = assay: SRB colorimetric cell growth inhibition assay, HeLa; details: Homo sapiens, HeLa; for GI50: read-out: GI50 HELA; for CC50: read-out: LC50 HELA; for IC (TGI): read-out: TGI HELA
Excerpt: (§1) The finality of these assays is to interrupt the growth of an “in vitro” tumor cell culture by means a continued exhibition of the cells to the sample to be testing.
(§2) A colorimetric type of assay, using sulforhodamine B (SRB) reaction has been adapted for a quantitative measurement of cell growth and viability (following the technique described by P. A. Skehan, et al., J. Natl. Cancer Inst. 1990, 82, 1107-1112).
(§3) This form of assay employs 96 well cell culture microplates of 9 mm diameter (T. Mosmann et al., J. of Immunological Methods 1983, 65, 55-63; G. T. Faircloth et al., J. of Tissue and Culture Methods 1988, 11, 201-205).
(§4) Most of the cell lines are obtained from American Type Culture Collection (ATCC) derived from different human cancer types.
(§5) The values for mean +/− SD of data from triplicate wells are calculated. Some parameters for cellular responses can be calculated: GI=growth inhibition, TGI=total growth inhibition (cytostatic effect) and LC=cell killing (cytotoxic effect).

IGROV-ET = assay: SRB colorimetric cell growth inhibition assay, IGROV-ET (ET-743 resistant); details: Homo sapiens, IGROV-ET; for GI50: GI=growth inhibition, read-out: GI50 IGROV-ET; for CC50: cell killing (cytotoxic effect), read-out: LC50 IGROV-ET; for IC (TGI): total growth inhibition (cytostatic effect), read-out: TGI IGROV-ET
Excerpt: as §1, §2, §3, §4, §5

A-549 = assay: SRB colorimetric cell growth inhibition assay, A-549; details: Homo sapiens, A549, A-549; for GI50: GI=growth inhibition, read-out: GI50 A-549; for CC50: cell killing (cytotoxic effect), read-out: LC50 A-549; for IC (TGI): total growth inhibition (cytostatic effect), read-out: TGI A-549
Excerpt: as §1, §2, §3, §4, §5

LNCaP = assay: SRB colorimetric cell growth inhibition assay, LNCaP; details: Homo sapiens, LNCaP, LN-caP
Excerpt: as §1, §2, §3, §4, §5

PANC-1 = assay: SRB colorimetric cell growth inhibition assay, PANC-1; details: Homo sapiens; for CC50: cell killing (cytotoxic effect), read-out: LC50 PANC-1; for IC (TGI): total growth inhibition (cytostatic effect), read-out: TGI PANC-1; for GI50: GI=growth inhibition, read-out: GI50 PANC-1
Excerpt: as §1, §2, §3, §4, §5

SK-MEL-28 = assay: SRB colorimetric cell growth inhibition assay, SK-MEL-28; details: Homo sapiens, SK-MEL-28, MEL-28
Excerpt: as §1, §2, §3, §4, §5

DU-145 = assay: SRB colorimetric cell growth inhibition assay, DU-145; details: Homo sapiens; for CC50: cell killing (cytotoxic effect), read-out: LC50 DU-145; for GI50: GI=growth inhibition, read-out: GI50 DU-145; for IC (TGI): total growth inhibition (cytostatic effect), read-out: TGI DU-145
Excerpt: as §1, §2, §3, §4, §5

LoVo-Dox = assay: SRB colorimetric cell growth inhibition assay, LoVo-Dox (MDR); details: Homo sapiens, LOVO-DOX; for GI50: GI=growth inhibition, read-out: GI50 LOVO-DOX; for CC50: cell killing (cytotoxic effect), read-out: LC50 LOVO-DOX; for IC (TGI): total growth inhibition (cytostatic effect), read-out: TGI LOVO-DOX
Excerpt: as §1, §2, §3, §4, §5

IGROV = assay: SRB colorimetric cell growth inhibition assay, IGROV
Excerpt: as §1, §2, §3, §4, §5

SK-BR-3 = assay: SRB colorimetric cell growth inhibition assay, SK-BR-3; details: Homo sapiens; for CC50: cell killing (cytotoxic effect), read-out: LC50 SK-BR-3; for GI50: GI=growth inhibition, read-out: GI50 SK-BR-3; for IC (TGI): total growth inhibition (cytostatic effect), read-out: TGI SK-BR-3
Excerpt: as §1, §2, §3, §4, §5

HT-29 = assay: SRB colorimetric cell growth inhibition assay, HT-29; details: Homo sapiens; for CC50: cell killing (cytotoxic effect), read-out: LC50 HT-29; for GI50: GI=growth inhibition, read-out: GI50 HT-29; for IC (TGI): total growth inhibition (cytostatic effect), read-out: TGI HT-29
Excerpt: as §1, §2, §3, §4, §5

HeLa-APL = assay: SRB colorimetric cell growth inhibition assay, HeLa-APL (aplidine resistant); details: Homo sapiens; for GI50: read-out: GI50 HELA-APL; for CC50: read-out: LC50 HELA-APL; for IC (TGI): read-out: TGI HELA-APL
Excerpt: as §1, §2, §3, §4, §5

LoVo = assay: SRB colorimetric cell growth inhibition assay, LoVo; details: Homo sapiens; for CC50: cell killing (cytotoxic effect), read-out: LC50 LOVO; for GI50: GI=growth inhibition, read-out: GI50 LOVO; for IC (TGI): total growth inhibition (cytostatic effect), read-out: TGI LOVO
Excerpt: as §1, §2, §3, §4, §5

K-562 = assay: SRB colorimetric cell growth inhibition assay, K-562; details: Homo sapiens, K562, K-562
Excerpt: as §1, §2, §3, §4, §5

[1] = Homo sapiens, IGROV; cell killing (cytotoxic effect); read-out: LC50 IGROV

CC[C@H](C)[C@H](NC(=O)OC(C)(C)C)C(=O)Oc1ccc(-c2c3c4cc(OC)c(OC(=O)[C@@H](NC(=O)OC(C)(C)C)[C@@H](C)CC)cc4oc(=O)c3n3ccc4cc(OC(=O)[C@@H](NC(=O)OC(C)(C)C)[C@@H](C)CC)c(OC)cc4c23)cc1OC [Compound 208] was tested, and the GI50 (HeLa) was 0.208 µM, the CC50 (HeLa) was 2.31 µM and the IC (TGI) (HeLa) was 0.618 µM. It also gave a GI50 (IGROV-ET) of 8.78 µM, a CC50 (IGROV-ET) of 8.78 µM and an IC (TGI) (IGROV-ET) of 8.78 µM. The GI50 (A-549) was 8.78 µM, the CC50 (A-549) was 8.78 µM and the IC (TGI) (A-549) was 8.78 µM. For the same compound, the GI50 (LNCaP; GI=growth inhibition, read-out: GI50 LN-caP) was 1.46 µM, the CC50 (LNCaP; cell killing (cytotoxic effect), read-out: LC50 LN-caP) was 5.83 µM and the IC (TGI) (LNCaP; total growth inhibition (cytostatic effect), read-out: TGI LN-caP) was 2.91 µM. The CC50 (PANC-1; PANC-1, PANC-1) was 8.78 µM, the IC (TGI) (PANC-1; PANC-1, PANC-1) was 8.78 µM and the GI50 (PANC-1; PANC-1) was 5.92 µM. The GI50 (SK-MEL-28; GI=growth inhibition, read-out: GI50 MEL-28) was 8.78 µM, the CC50 (SK-MEL-28; cell killing (cytotoxic effect), read-out: LC50 MEL-28) was 8.78 µM and the IC (TGI) (SK-MEL-28; total growth inhibition (cytostatic effect), read-out: TGI MEL-28) was 8.78 µM. The CC50 (DU-145; DU-145, DU-145) was 8.78 µM, the GI50 (DU-145; DU-145) was 8.78 µM and the IC (TGI) (DU-145; DU-145) was 8.78 µM. It also gave a GI50 (LoVo-Dox) of 8.78 µM, a CC50 (LoVo-Dox) of 8.78 µM and an IC (TGI) (LoVo-Dox) of 8.78 µM. For the same compound, the CC50 (IGROV; [1]) was 8.78 µM, the GI50 (IGROV; Homo sapiens; IGROV; GI=growth inhibition; read-out: GI50 IGROV) was 8.78 µM and the IC (TGI) (IGROV; Homo sapiens; IGROV; total growth inhibition (cytostatic effect); read-out: TGI IGROV) was 8.78 µM. The CC50 (SK-BR-3; SK-BR-3, SK-BR-3) was 8.78 µM, the GI50 (SK-BR-3; SK-BR-3) was 5.01 µM and the IC (TGI) (SK-BR-3; SK-BR-3) was 7.97 µM. For the same compound, the CC50 (HT-29; HT-29, HT-29) was 8.78 µM, the GI50 (HT-29; HT-29) was 8.78 µM and the IC (TGI) (HT-29; HT-29) was 8.78 µM. For the same compound, the GI50 (HeLa-APL) was 0.154 µM, the CC50 (HeLa-APL) was 1.14 µM and the IC (TGI) (HeLa-APL) was 0.385 µM. It also gave a CC50 (LoVo; LoVo) of 8.78 µM, a GI50 (LoVo; LOVO) of 8.78 µM and an IC (TGI) (LoVo; LOVO) of 8.78 µM.
With C=CCOC(=O)N[C@@H](C)C(=O)Oc1ccc(-c2c3c4cc(OC)c(OC(=O)[C@H](C)NC(=O)OCC=C)cc4oc(=O)c3n3ccc4cc(OC(=O)[C@H](C)NC(=O)OCC=C)c(OC)cc4c23)cc1OC [Compound 210] the GI50 (K-562; GI=growth inhibition, read-out: GI50 K-562) was 0.612 µM, the CC50 (K-562; cell killing (cytotoxic effect), read-out: LC50 K-562) was 6.17 µM and the IC (TGI) (K-562; total growth inhibition (cytostatic effect), read-out: TGI K-562) was 2.13 µM. It also gave a GI50 (HeLa; GI=growth inhibition) of 0.611 µM, a CC50 (HeLa; cell killing (cytotoxic effect)) of 10.4 µM and an IC (TGI) (HeLa; total growth inhibition (cytostatic effect)) of 5.54 µM. The GI50 (IGROV-ET) was 0.145 µM, the CC50 (IGROV-ET) was 0.92 µM and the IC (TGI) (IGROV-ET) was 0.366 µM. The GI50 (A-549) was 0.477 µM, the CC50 (A-549) was 10.4 µM and the IC (TGI) (A-549) was 3.94 µM. The GI50 (PANC-1; PANC-1, PANC-1) was 0.398 µM, the CC50 (PANC-1; PANC-1, PANC-1) was 4.87 µM and the IC (TGI) (PANC-1; PANC-1, PANC-1) was 1.51 µM. For the same compound, the GI50 (DU-145; DU-145, DU-145) was 0.181 µM, the CC50 (DU-145; DU-145, DU-145) was 0.631 µM and the IC (TGI) (DU-145; DU-145, DU-145) was 0.339 µM. For the same compound, the GI50 (LoVo-Dox) was 2.43 µM, the CC50 (LoVo-Dox) was 10.4 µM and the IC (TGI) (LoVo-Dox) was 6.04 µM. It also gave a GI50 (IGROV; Homo sapiens, IGROV; GI=growth inhibition; read-out: GI50 IGROV) of 0.317 µM, a CC50 (IGROV; [1]) of 3.65 µM and an IC (TGI) (IGROV; Homo sapiens, IGROV; total growth inhibition (cytostatic effect); read-out: TGI IGROV) of 1.06 µM. It also gave a GI50 (SK-BR-3; SK-BR-3, SK-BR-3) of 0.397 µM, a CC50 (SK-BR-3; SK-BR-3, SK-BR-3) of 4.59 µM and an IC (TGI) (SK-BR-3; SK-BR-3, SK-BR-3) of 1.36 µM. The GI50 (HT-29; HT-29, HT-29) was 7.09 µM, the CC50 (HT-29; HT-29, HT-29) was 10.4 µM and the IC (TGI) (HT-29; HT-29, HT-29) was 10.4 µM. For the same compound, the GI50 (HeLa-APL; HELA-APL, GI=growth inhibition) was 0.516 µM, the CC50 (HeLa-APL; HELA-APL, cell killing (cytotoxic effect)) was 10.4 µM and the IC (TGI) (HeLa-APL; HELA-APL, total growth inhibition (cytostatic effect)) was 3.08 µM. The GI50 (LoVo; LoVo) was 2.05 µM, the CC50 (LoVo; LoVo) was 7.76 µM and the IC (TGI) (LoVo; LoVo) was 3.99 µM.
